Biological target: recombinant human SAE enzyme (Homo sapiens (Human), UniProt Q9UBT2)
Assay: SAE HTRF enzyme assay
Format: biochemical
Conditions: for Percent Inhibition: Concentration 0.111 μM; for IC50: class symbols A/B/C
In short: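 Enzyme reaction: 50 mM HEPES pH 7.5, 5 mM MgCl2, 250 μM GSH, 0.05% BSA, 0.5 μM ATP, 0.01 μM Ubc9-GST, 0.125 μM Sumo-Flag, 0.11 nM SAE; 105 min, 24° C. Stop/detect, 2 h, then HTRF. % inh or IC50.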

Sequence of recombinant human SAE enzyme (Q9UBT2 whole entry): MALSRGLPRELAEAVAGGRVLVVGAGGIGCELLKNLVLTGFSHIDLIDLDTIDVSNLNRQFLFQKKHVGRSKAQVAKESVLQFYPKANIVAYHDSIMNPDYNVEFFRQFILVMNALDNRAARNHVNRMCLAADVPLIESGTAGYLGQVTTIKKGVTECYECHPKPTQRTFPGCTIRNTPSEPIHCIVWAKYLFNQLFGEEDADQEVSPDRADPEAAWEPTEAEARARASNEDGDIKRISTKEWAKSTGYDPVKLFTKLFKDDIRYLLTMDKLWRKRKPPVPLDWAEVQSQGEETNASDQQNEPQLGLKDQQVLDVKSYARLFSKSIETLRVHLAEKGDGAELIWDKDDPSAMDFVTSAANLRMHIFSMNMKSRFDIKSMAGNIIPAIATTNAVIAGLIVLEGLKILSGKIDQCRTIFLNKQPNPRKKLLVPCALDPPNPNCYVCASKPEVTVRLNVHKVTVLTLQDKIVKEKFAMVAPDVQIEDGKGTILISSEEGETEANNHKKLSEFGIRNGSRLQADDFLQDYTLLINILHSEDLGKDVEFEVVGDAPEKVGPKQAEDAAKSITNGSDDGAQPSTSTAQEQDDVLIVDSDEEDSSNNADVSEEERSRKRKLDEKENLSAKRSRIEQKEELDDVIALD
Sequence of recombinant human SAE enzyme (Q9UBE0 whole entry partner): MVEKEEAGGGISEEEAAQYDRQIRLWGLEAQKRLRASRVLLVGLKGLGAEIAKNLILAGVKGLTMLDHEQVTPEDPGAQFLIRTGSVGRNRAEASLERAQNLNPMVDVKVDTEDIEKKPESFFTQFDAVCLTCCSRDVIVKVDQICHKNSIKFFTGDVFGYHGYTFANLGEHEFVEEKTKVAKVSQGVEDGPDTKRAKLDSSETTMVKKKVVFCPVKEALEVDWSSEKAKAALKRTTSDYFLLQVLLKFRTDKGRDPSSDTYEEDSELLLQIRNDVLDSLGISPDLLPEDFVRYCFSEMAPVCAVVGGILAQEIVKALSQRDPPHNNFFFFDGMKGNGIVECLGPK

SMILES	Percent Inhibition	IC50
NS(=O)(=O)OC[C@H]1C[C@@H](Nc2ncncc2C(=O)c2cc([C@@]3(C4=CCCCC4)CCCO3)cs2)C[C@@H]1O (mixture of isomers) [I-116, [(1R,2S,4R)-4-{[5-({4-[(2S)-2-(cyclohex-1-en-1-yl)tetrahydrofuran-2-yl]-2-thienyl}carbonyl)pyrimidin-4-yl]amino}-2-hydroxycyclopentyl]methyl sulfamate and [(1R,2S,4R)-4-{[5-({4-[(2R)-2-(cyclohex-1-en-1-yl)tetrahydrofuran-2-yl]-2-thienyl}carbonyl)pyrimidin-4-yl]amino}-2-hydroxycyclopentyl]methyl sulfamate]	96	< 10 nM
C[C@@H](c1cccc(Cl)c1)c1csc(C(=O)c2cncnc2N[C@@H]2C[C@H](COS(N)(=O)=O)[C@@H](O)C2)c1 (mixture of isomers) [I-117, [(1R,2S,4R)-4-{[5-({4-[(1S)-1-(3-chlorophenyl)ethyl]-2-thienyl}carbonyl)pyrimidin-4-yl]amino}-2-hydroxycyclopentyl]methyl sulfamate and [(1R,2S,4R)-4-{[5-({4-[(1R)-1-(3-chlorophenyl)ethyl]-2-thienyl}carbonyl)pyrimidin-4-yl]amino}-2-hydroxycyclopentyl]methyl sulfamate]	93	< 10 nM
Cc1sc(C(=O)c2cncnc2N[C@@H]2C[C@H](COS(N)(=O)=O)[C@@H](O)C2)cc1[C@@]1(c2ccccc2)CCCO1 (mixture of isomers) [I-121, [(1R,2S,4R)-2-hydroxy-4-{[5-({5-methyl-4-[(2S)-2-phenyltetrahydrofuran-2-yl]-2-thienyl}carbonyl)pyrimidin-4-yl]amino}cyclopentyl]methyl sulfamate and [(1R,2S,4R)-2-hydroxy-4-{[5-({5-methyl-4-[(2R)-2-phenyltetrahydrofuran-2-yl]-2-thienyl}carbonyl)pyrimidin-4-yl]amino}cyclopentyl]methyl sulfamate]	98	< 10 nM
NS(=O)(=O)OC[C@H]1C[C@@H](Nc2ncncc2C(=O)c2cc([S@+]([O-])c3cccc(C(F)(F)F)c3)c(Cl)s2)C[C@@H]1O (mixture of isomers) [I-122, [(1R,2S,4R)-4-({5-[(5-chloro-4-{(R)-[3-(trifluoromethyl)phenyl]sulfinyl}-2-thienyl)carbonyl]pyrimidin-4-yl}amino)-2-hydroxycyclopentyl]methyl sulfamate and [(1R,2S,4R)-4-({5-[(5-chloro-4-{(S)-[3-(trifluoromethyl)phenyl]sulfinyl}-2-thienyl)carbonyl]pyrimidin-4-yl}amino)-2-hydroxycyclopentyl]methyl sulfamate]	98	< 10 nM
Cc1sc(C(=O)c2cncnc2N[C@@H]2C[C@H](COS(N)(=O)=O)[C@@H](O)C2)cc1[C@H](C)c1cccc(Cl)c1 (mixture of isomers) [I-135, [(1R,2S,4R)-4-{[5-({4-[(1R)-1-(3-chlorophenyl)ethyl]-5-methyl-2-thienyl}carbonyl)pyrimidin-4-yl]amino}-2-hydroxycyclopentyl]methyl sulfamate and [(1R,2S,4R)-4-{[5-({4-[(1S)-1-(3-chlorophenyl)ethyl]-5-methyl-2-thienyl}carbonyl)pyrimidin-4-yl]amino}-2-hydroxycyclopentyl]methyl sulfamate]	94	10 to 100 nM
C=C(C)[C@H](O)c1cc(C(=O)c2cncnc2N[C@@H]2C[C@H](COS(N)(=O)=O)[C@@H](O)C2)sc1Cl (mixture of isomers) [I-141, [(1R,2S,4R)-4-{[5-({5-chloro-4-[(1S)-1-hydroxy-2-methylprop-2-en-1-yl]-2-thienyl}carbonyl)pyrimidin-4-yl]amino}-2-hydroxycyclopentyl]methyl sulfamate and [(1R,2S,4R)-4-{[5-({5-chloro-4-[(1R)-1-hydroxy-2-methylprop-2-en-1-yl]-2-thienyl}carbonyl)pyrimidin-4-yl]amino}-2-hydroxycyclopentyl]methyl sulfamate]	95	< 10 nM
